Assay results: ChEMBL document CHEMBL1155574, “Hemolytic polar steroidal constituents of the starfish Aphelasterias japonica” (J Nat Prod, 2000)

Test: Toxicity against mouse erythrocytes assessed as hemolytic activity
Format: cell-based, Erythrocyte
Conditions: read-out: ED50 (the source's name)

| SMILES | HC50 [µM] |
| --- | --- |
| CC(C)[C@H](O)C(=O)C[C@@H](C)[C@H]1CC[C@H]2[C@@H]3C[C@H](O)[C@H]4C[C@@H](OS(=O)(=O)O)CC[C@]4(C)C3=CC[C@]12C [APHELAKETOTRIOL] | 40 |
| CC(=O)[C@H]1CC[C@H]2[C@@H]3C[C@H](O[C@H]4O[C@@H](C)[C@H](OS(=O)(=O)O)[C@@H](O)[C@@H]4O)[C@H]4C[C@@H](OS(=O)(=O)O)CC[C@]4(C)C3=CC[C@]12C [CHELIFEROSIDE L1] | 175 |
| CC(=O)[C@H]1CC[C@H]2[C@@H]3C[C@H](O)[C@H]4C[C@@H](OS(=O)(=O)O)CC[C@]4(C)C3=CC[C@]12C | > 500 |
| CC(C)CC(=O)C[C@](C)(O)[C@H]1CC[C@H]2[C@@H]3C[C@H](O)[C@H]4C[C@@H](OS(=O)(=O)O)CC[C@]4(C)C3=CC[C@@]21C [3-O-SULFOTHORNASTEROL A] | 110 |
| CC(C)[C@H](O)C(=O)C[C@@H](C)[C@H]1CC[C@H]2[C@@H]3C[C@H](O[C@H]4O[C@@H](C)[C@H](OS(=O)(=O)O)[C@@H](O)[C@@H]4O)[C@H]4C[C@@H](OS(=O)(=O)O)CC[C@]4(C)C3=CC[C@]12C [APHELASTEROSIDE C] | 190 |
| CC(=O)[C@H]1CC[C@H]2[C@@H]3C[C@H](O[C@H]4O[C@@H](C)[C@H](O)[C@@H](O)[C@@H]4O)[C@H]4C[C@@H](OS(=O)(=O)O)CC[C@]4(C)C3=CC[C@]12C [FORBESIDE E3] | 330 |
